Source: ChEMBL document CHEMBL1129061, “Inhibition of human glutathione reductase by 10-arylisoalloxazines: crystalline, kinetic, and electrochemical studies” (J Med Chem, 1996)

Target: T1, Glutathione reductase, mitochondrial (Homo sapiens, UniProt P00390)
T1 sequence (P00390 whole entry): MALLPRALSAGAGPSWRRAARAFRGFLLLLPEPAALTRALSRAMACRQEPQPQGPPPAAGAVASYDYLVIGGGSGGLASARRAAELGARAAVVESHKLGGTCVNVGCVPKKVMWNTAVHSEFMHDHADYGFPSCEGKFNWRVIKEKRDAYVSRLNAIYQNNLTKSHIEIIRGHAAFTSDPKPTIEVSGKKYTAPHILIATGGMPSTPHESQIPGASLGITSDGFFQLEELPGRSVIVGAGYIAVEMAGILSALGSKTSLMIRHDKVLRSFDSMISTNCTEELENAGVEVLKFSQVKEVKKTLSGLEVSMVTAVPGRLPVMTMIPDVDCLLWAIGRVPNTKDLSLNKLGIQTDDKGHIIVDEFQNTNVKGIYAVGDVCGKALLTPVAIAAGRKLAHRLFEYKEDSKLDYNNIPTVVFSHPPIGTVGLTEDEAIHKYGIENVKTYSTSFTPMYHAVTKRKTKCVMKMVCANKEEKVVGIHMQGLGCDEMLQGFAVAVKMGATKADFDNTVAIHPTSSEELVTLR
Experiment: Inhibitory activity against human glutathione reductase in presence of 100 uM GSSG

IC50 [µM] | SMILES
2.5 | Cn1c(=O)nc2n(-c3ccc(Cl)cc3)c3cc(N=[N+]=[N-])ccc3nc-2c1=O
3.5 | O=c1nc2n(-c3cc(C(F)(F)F)cc(C(F)(F)F)c3)c3ccccc3nc-2c(=O)[nH]1
12 | O=C(O)Cn1c(=O)nc2n(-c3ccc(Cl)cc3)c3ccccc3nc-2c1=O
< 1 | Cn1c(=O)nc2n(-c3c(F)c(F)c(F)c(F)c3F)c3ccccc3nc-2c1=O
18 | CCOC(=O)Cn1c(=O)nc2n(-c3ccc(Cl)cc3)c3ccccc3nc-2c1=O
< 1 | Cn1c(=O)nc2n(-c3ccc(Cl)cc3)c3ccccc3nc-2c1=O
5 | Cn1c(=O)nc2n(-c3cc(C(F)(F)F)cc(C(F)(F)F)c3)c3ccccc3nc-2c1=O
1 | Cn1c(=O)nc2n(-c3ccc(Cl)cc3)c3cc(F)ccc3nc-2c1=O
< 1 | O=c1nc2n(-c3cc(Cl)cc(Cl)c3)c3ccccc3nc-2c(=O)[nH]1
3.5 | O=c1nc2n(-c3c(F)c(F)c(F)c(F)c3F)c3ccccc3nc-2c(=O)[nH]1
7 | CCOC(=O)Cn1c(=O)nc2n(-c3cc(Cl)cc(Cl)c3)c3ccccc3nc-2c1=O
8 | Cn1c(=O)nc2n(-c3cccnc3)c3ccccc3nc-2c1=O
8 | CCOC(=O)Cn1c(=O)nc2n(-c3cccc(C(F)(F)F)c3)c3ccccc3nc-2c1=O
3 | Cn1c(=O)nc2n(-c3ccncc3)c3ccccc3nc-2c1=O
40 | Cn1c(=O)nc2n(-c3cc[n+](C)cc3)c3ccccc3nc-2c1=O
2 | Cn1c(=O)nc2n(-c3cccc4ccccc34)c3ccccc3nc-2c1=O
2 | Cn1c(=O)nc2n(-c3ccccc3)c3ccccc3nc-2c1=O
14 | O=C(O)Cn1c(=O)nc2n(-c3cc(Cl)cc(Cl)c3)c3ccccc3nc-2c1=O
20 | O=C(O)Cn1c(=O)nc2n(-c3cccc(C(F)(F)F)c3)c3ccccc3nc-2c1=O
1 | O=c1nc2n(-c3cccc(C(F)(F)F)c3)c3ccccc3nc-2c(=O)[nH]1
100 | CCOC(=O)Cn1c(=O)nc2n(-c3cc(C(F)(F)F)cc(C(F)(F)F)c3)c3ccccc3nc-2c1=O
4 | Cn1c(=O)nc2n(-c3cccc4cc5ccccc5cc34)c3ccccc3nc-2c1=O
< 1 | Cn1c(=O)nc2n(-c3cc(Cl)cc(Cl)c3)c3ccccc3nc-2c1=O
25 | O=C(O)Cn1c(=O)nc2n(-c3cc(C(F)(F)F)cc(C(F)(F)F)c3)c3ccccc3nc-2c1=O
< 1 | O=c1nc2n(-c3ccc(Cl)cc3)c3ccccc3nc-2c(=O)[nH]1
1 | Cn1c(=O)nc2n(-c3cccc(C(F)(F)F)c3)c3ccccc3nc-2c1=O
